Results as given in ChEMBL document CHEMBL4602639, “A novel series of 11-O-carbamoyl-3-O-descladinosyl clarithromycin derivatives bearing 1,2,3-triazole group: Design, synthesis and antibacterial evaluation” (2020).
≈ marks a conversion by molar mass, not a printed value. Calls of active or inactive are those of the source. The rule behind the calls is not given here.

Legend:
Streptococcus pyogenes [1] = assay: Antibacterial activity against erythromycin resistant Streptococcus pyogenes R1 by standard broth microdilution method; type: functional
Escherichia coli = assay: Antibacterial activity against penicillin-susceptible Escherichia coli ATCC 25922 by standard broth microdilution method; type: functional
Streptococcus pyogenes [2] = assay: Potency index, ratio of MIC of AZM to MIC of compound for antibacterial activity against erythromycin resistant Streptococcus pyogenes R1; type: functional
Streptococcus pneumoniae [3] = assay: Potency index, ratio of MIC of AZM to MIC of compound for antibacterial activity against erythromycin-resistant Streptococcus pneumoniae AB11 expressing ermB and me/A genes; type: functional
Staphylococcus aureus [4] = assay: Antibacterial activity against methicillin-resistant Staphylococcus aureus ATCC 43300 by standard broth microdilution method; type: functional
Streptococcus pneumoniae [5] = assay: Potency index, ratio of MIC of CAM to MIC of compound for antibacterial activity against erythromycin-resistant Streptococcus pneumoniae AB11 expressing ermB and me/A genes; type: functional
Staphylococcus aureus [6] = assay: Antibacterial activity against erythromycin-susceptible Staphylococcus aureus ATCC 25923 by standard broth microdilution method; type: functional
Pseudomonas aeruginosa = assay: Antibacterial activity against penicillin-susceptible Pseudomonas aeruginosa ATCC 27853 by standard broth microdilution method; type: functional
Staphylococcus aureus [7] = assay: Potency index, ratio of MIC of AZM to MIC of compound for antibacterial activity against methicillin-resistant Staphylococcus aureus ATCC 43300; type: functional
Streptococcus pneumoniae [8] = assay: Antibacterial activity against erythromycin-resistant Streptococcus pneumoniae AB11 expressing ermB and me/A genes by standard broth microdilution method; type: functional
Bacillus subtilis [9] = assay: Antibacterial activity against penicillin-susceptible Bacillus subtilis ATCC 9372 by standard broth microdilution method; type: functional
Streptococcus pyogenes [10] = assay: Potency index, ratio of MIC of CAM to MIC of compound for antibacterial activity against erythromycin resistant Streptococcus pyogenes R1; type: functional
Staphylococcus aureus [11] = assay: Potency index, ratio of MIC of CAM to MIC of compound for antibacterial activity against methicillin-resistant Staphylococcus aureus ATCC 43300; type: functional
Streptococcus pneumoniae [12] = assay: Antibacterial activity against erythromycin-resistant Streptococcus pneumoniae B1 expressing ermB gene by standard broth microdilution method; type: functional
Bacillus subtilis [13] = assay: Ratio of MBC for penicillin-susceptible Bacillus subtilis ATCC 9372 to MIC for penicillin-susceptible Bacillus subtilis ATCC 9372; type: functional
Streptococcus pneumoniae [14] = assay: Bactericidal activity against erythromycin-resistant Streptococcus pneumoniae AB11 expressing ermB and me/A genes at 1 to 4 times of MIC incubated for 9 hrs by time-kill curve assay; type: functional, organism-based
Streptococcus pneumoniae [15] = assay: Bactericidal activity against erythromycin-resistant Streptococcus pneumoniae AB11 expressing ermB and me/A genes; type: functional
Streptococcus pneumoniae [16] = assay: Bacteriostatic activity against erythromycin-resistant Streptococcus pneumoniae AB11 expressing ermB and me/A genes at 1 to 4 MIC incubated for 9 to 24 hrs by time-kill curve assay; type: functional, organism-based
Bacillus subtilis [17] = assay: Bactericidal activity against penicillin-susceptible Bacillus subtilis ATCC 9372; type: functional
Streptococcus pneumoniae [18] = assay: Ratio of MBC for erythromycin-resistant Streptococcus pneumoniae AB11 expressing ermB and me/A genes to MIC for erythromycin-resistant Streptococcus pneumoniae AB11 expressing ermB and me/A genes; type: functional
Streptococcus pneumoniae [19] = assay: Potency index, ratio of MIC of CAM to MIC of compound for antibacterial activity against erythromycin-resistant Streptococcus pneumoniae B1 expressing ermB gene; type: functional
Streptococcus pneumoniae [20] = assay: Potency index, ratio of MIC of AZM to MIC of compound for antibacterial activity against erythromycin-resistant Streptococcus pneumoniae B1 expressing ermB gene; type: functional

| Structure (SMILES) | MIC (Streptococcus pyogenes [1]) [µg/mL] | MIC (Escherichia coli) [µg/mL] | Ratio (Streptococcus pyogenes [2]) | Ratio (Streptococcus pneumoniae [3]) | MIC (Staphylococcus aureus [4]) [µg/mL] | Ratio (Streptococcus pneumoniae [5]) | MIC (Staphylococcus aureus [6]) [µg/mL] | MIC (Pseudomonas aeruginosa) [µg/mL] | MIC (Streptococcus pneumoniae [8]) [µg/mL] | MIC (Bacillus subtilis [9]) [µg/mL] | Ratio (Streptococcus pyogenes [10]) | MIC (Streptococcus pneumoniae [12]) [µg/mL] | Ratio (Bacillus subtilis [13]) | MBC (Streptococcus pneumoniae [15]) [µg/mL] | MBC (Bacillus subtilis [17]) [µg/mL] | Ratio (Streptococcus pneumoniae [18]) | other results |
| --- | --- | --- | --- | --- | --- | --- | --- | --- | --- | --- | --- | --- | --- | --- | --- | --- | --- |
| CCCCc1ccc(-c2cn(CCCNC(=O)O[C@@H]3[C@@H](C)C(=O)[C@H](C)C[C@@](C)(OC)[C@H](O[C@H]4O[C@@H](C)C[C@@H](N(C)C)[C@@H]4O)[C@@H](C)C(=O)[C@@H](C)C(=O)O[C@H](CC)[C@@]3(C)O)nn2)cc1 | 16 (≈ 18.3 µM) | > 128 | 8 - 16 | 8 - 16 | 64 (≈ 73.4 µM) | 4 - 8 | 16 (≈ 18.3 µM) | 128 (≈ 147 µM) | 32 (≈ 36.7 µM) | 2 (≈ 2.29 µM) | 8 - 16 | 32 (≈ 36.7 µM) | – | – | – | – | Ratio (Staphylococcus aureus [7]): >4; Ratio (Staphylococcus aureus [11]): >4 |
| CC[C@H]1OC(=O)[C@H](C)C(=O)[C@H](C)[C@@H](O[C@H]2O[C@@H](C)C[C@@H](N(C)C)[C@@H]2O)[C@](C)(OC)C[C@@H](C)C(=O)[C@H](C)[C@@H](OC(=O)NCCCn2cc(-c3cccc(Br)c3)nn2)[C@]1(C)O | 32 (≈ 35.8 µM) | > 128 | 8 - 16 | 8 - 16 | 128 (≈ 143 µM) | 4 - 8 | 8 (≈ 8.94 µM) | 128 (≈ 143 µM) | 32 (≈ 35.8 µM) | 2 (≈ 2.23 µM) | 8 - 16 | 64 (≈ 71.5 µM) | – | – | – | – | – |
| CC[C@H]1OC(=O)[C@H](C)C(=O)[C@H](C)[C@@H](O[C@H]2O[C@@H](C)C[C@@H](N(C)C)[C@@H]2O)[C@](C)(OC)C[C@@H](C)C(=O)[C@H](C)[C@@H](OC(=O)NCCCn2cc(-c3ccc(Cl)cc3)nn2)[C@]1(C)O | 32 (≈ 37.6 µM) | > 128 | 8 - 16 | 8 - 16 | 128 (≈ 151 µM) | 4 - 8 | 4 (≈ 4.7 µM) | 128 (≈ 151 µM) | 16 (≈ 18.8 µM) | 1 (≈ 1.18 µM) | 8 - 16 | 64 (≈ 75.3 µM) | 512 | 128 (≈ 151 µM) | 128 (≈ 151 µM) | 1 | Activity (Streptococcus pneumoniae [14]): Active; Activity (Streptococcus pneumoniae [16]): Dose-dependent effect |
| CC[C@H]1OC(=O)[C@H](C)C(=O)[C@H](C)[C@@H](O[C@H]2O[C@@H](C)C[C@@H](N(C)C)[C@@H]2O)[C@](C)(OC)C[C@@H](C)C(=O)[C@H](C)[C@@H](OC(=O)NCCCn2cc(-c3ccccc3OC)nn2)[C@]1(C)O | 64 (≈ 75.6 µM) | > 128 | – | 8 - 16 | > 256 | 4 - 8 | 8 (≈ 9.46 µM) | 128 (≈ 151 µM) | 32 (≈ 37.8 µM) | 2 (≈ 2.36 µM) | – | 256 (≈ 303 µM) | – | – | – | – | – |
| CC[C@H]1OC(=O)[C@H](C)[C@@H](O[C@H]2C[C@@](C)(OC)[C@@H](O)[C@H](C)O2)[C@H](C)[C@@H](O[C@@H]2O[C@H](C)C[C@H](N(C)C)[C@H]2O)[C@](C)(OC)C[C@@H](C)C(=O)[C@H](C)[C@@H](O)[C@]1(C)O [CLARITHROMYCIN] | 256 (≈ 342 µM) | > 128 | – | – | > 256 | – | 0.25 (≈ 0.334 µM) | 32 (≈ 42.8 µM) | 128 (≈ 171 µM) | 0.25 (≈ 0.334 µM) | – | > 256 | 128 | 256 (≈ 342 µM) | 128 (≈ 171 µM) | 16 | – |
| CC[C@H]1OC(=O)[C@H](C)C(=O)[C@H](C)[C@@H](O[C@H]2O[C@@H](C)C[C@@H](N(C)C)[C@@H]2O)[C@](C)(OC)C[C@@H](C)C(=O)[C@H](C)[C@@H](OC(=O)NCCCn2cc(-c3cccc(N)c3)nn2)[C@]1(C)O | 128 (≈ 154 µM) | > 128 | – | 8 - 16 | > 256 | 4 - 8 | 16 (≈ 19.3 µM) | 128 (≈ 154 µM) | 32 (≈ 38.5 µM) | 4 (≈ 4.81 µM) | – | 128 (≈ 154 µM) | – | – | – | – | – |
| CC[C@H]1OC(=O)[C@H](C)C(=O)[C@H](C)[C@@H](O[C@H]2O[C@@H](C)C[C@@H](N(C)C)[C@@H]2O)[C@](C)(OC)C[C@@H](C)C(=O)[C@H](C)[C@@H](OC(=O)NCCCn2cc(-c3ccc(-c4ccccc4)cc3)nn2)[C@]1(C)O | 16 (≈ 17.9 µM) | > 128 | 8 - 16 | 8 - 16 | 64 (≈ 71.7 µM) | 4 - 8 | 4 (≈ 4.48 µM) | 128 (≈ 143 µM) | 16 (≈ 17.9 µM) | 1 (≈ 1.12 µM) | 8 - 16 | 16 (≈ 17.9 µM) | 32 | 128 (≈ 143 µM) | 32 (≈ 35.9 µM) | 8 | Ratio (Streptococcus pneumoniae [19]): >16; Ratio (Staphylococcus aureus [7]): >4; Ratio (Streptococcus pneumoniae [20]): >16; Ratio (Staphylococcus aureus [11]): >4 |
| CCCCc1ccc(-c2cn(CCNC(=O)O[C@@H]3[C@@H](C)C(=O)[C@H](C)C[C@@](C)(OC)[C@H](O[C@H]4O[C@@H](C)C[C@@H](N(C)C)[C@@H]4O)[C@@H](C)C(=O)[C@@H](C)C(=O)O[C@H](CC)[C@@]3(C)O)nn2)cc1 | 32 (≈ 37.3 µM) | > 128 | 8 - 16 | – | 256 (≈ 298 µM) | – | 16 (≈ 18.6 µM) | 128 (≈ 149 µM) | 64 (≈ 74.6 µM) | 4 (≈ 4.66 µM) | 8 - 16 | 128 (≈ 149 µM) | – | – | – | – | – |
| CC[C@H]1OC(=O)[C@H](C)C(=O)[C@H](C)[C@@H](O[C@H]2O[C@@H](C)C[C@@H](N(C)C)[C@@H]2O)[C@](C)(OC)C[C@@H](C)C(=O)[C@H](C)[C@@H](OC(=O)NCCCn2cc(-c3ccc(C(C)(C)C)cc3)nn2)[C@]1(C)O | 32 (≈ 36.7 µM) | > 128 | 8 - 16 | – | 128 (≈ 147 µM) | – | 16 (≈ 18.3 µM) | 128 (≈ 147 µM) | 64 (≈ 73.4 µM) | 16 (≈ 18.3 µM) | 8 - 16 | 64 (≈ 73.4 µM) | – | – | – | – | – |
